Data from article PMC2362793, “A novel class of lipophilic quinazoline-based folic acid analogues: cytotoxic agents with a folate-independent locus” (British Journal of Cancer, 1999).

Tests used:
[1] = molecular target: T1, thymidylate synthase (TS) (Mus musculus, UniProt P07607); assay: inhibition of isolated mouse TS activity and inhibition kinetics (IC50 […], Kies […]); format: biochemical
T1 construct: gene Tyms; enzyme partially purified from the L1210:C15 TS-overproducing cell line

[2] = molecular target: T1, thymidylate synthase (TS); assay: inhibition of isolated mouse TS activity at […] (R,S)-5,10-CH2FH4; format: biochemical

T1 sequence (P07607 whole entry): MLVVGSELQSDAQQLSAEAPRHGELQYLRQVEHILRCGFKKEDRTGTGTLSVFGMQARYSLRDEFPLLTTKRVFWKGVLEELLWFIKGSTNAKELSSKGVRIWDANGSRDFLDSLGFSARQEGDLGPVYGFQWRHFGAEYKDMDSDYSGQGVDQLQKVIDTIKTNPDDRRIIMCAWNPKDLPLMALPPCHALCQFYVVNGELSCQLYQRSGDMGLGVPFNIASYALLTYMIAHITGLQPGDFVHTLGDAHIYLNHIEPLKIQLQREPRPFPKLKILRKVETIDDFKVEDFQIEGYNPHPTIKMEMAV

Row | Structure (SMILES) | Ki [1] | IC50 [2]
1 | C#CCN(Cc1cc2c(=O)[nH]c(C)nc2cc1Br)c1ccc(C(=O)NCc2ccccn2)cc1 [CB300179] | 160 nM | –
2 | C#CCN(Cc1cc2c(=O)[nH]c(C)nc2cc1Br)c1ccc(C(=O)NCc2ccncc2)cc1 [CB300189] | – | 250 nM
